Values of other authors in patent publication US20110098303A1, “Method of promoting nail growth using thyromimetic compounds” (priority 2002, published 2011).

Columns and labels:
nail growth = details: in vivo
AGA mouse = details: topical treatment

Row | SMILES | rate of nail growth (nail growth) | hair growth (mice; administered locally, directly to the skin) | growth of hair (mice; systemically administered) | effect on testosterone induced alopecia (AGA mouse)
1 | N[C@@H](Cc1ccc(O)c(O)c1)C(=O)O [I-dopa] | accelerate the rate of nail growth |  |  | 
2 | N[C@@H](Cc1cc(I)c(Oc2ccc(O)c(I)c2)c(I)c1)C(=O)O [T3, 3,5,3′-triiodo-L-thyronine] |  | dramatic acceleration of hair growth | inhibits the growth of hair | inhibitory effect
3 | O=C(O)CCCC[C@@H]1SC[C@@H]2NC(=O)N[C@@H]21 [biotin] | accelerate the rate of nail growth |  |  | 
4 | N[C@@H](CSSC[C@H](N)C(=O)O)C(=O)O [cystine] | accelerate the rate of nail growth |  |  | 
5 | CSCC[C@H](N)C(=O)O [methionine] | accelerate the rate of nail growth |  |  | 
